Experiment [1] concerns C. albicans MMX 2000 ATCC 10231. Put plainly: MIC assay (CLSI microdilution). It is filed as cell-based. Conditions: Candida albicans, ATCC10231, RPMI plus 0.002% Tween-80; read-out: MIC. For orientation: In broth dilution the organism is exposed to a series of concentrations in liquid medium.
For experiment [2], the system named is C. neoformans MMX 0634 ATCC 90112. Nature of the experiment: MIC assay (CLSI microdilution). Conditions: Cryptococcus neoformans, ATCC90112, 72 h, 72 hour; RPMI plus 0.002% Tween-80; read-out: MIC. Type of experiment: cell-based.
Experiment [3] deals with C. parapsilosis MMX 2323 ATCC 22019. Put plainly: MIC assay (CLSI microdilution). Conditions: read-out: MIC. Type of experiment: cell-based, Candida parapsilosis. The essentials:
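Broth microdilution MIC testing of Candida parapsilosis ATCC 22019 followed CLSI methods in RPMI-1640, with or without 0.002% Tween-80. Yeast grown 48 hours at 35° C on Sabouraud dextrose agar was suspended to a 0.5 McFarland standard and diluted 1:100 to roughly 0.5-2.5×10^3 CFU/mL. The MIC was the lowest concentration preventing visible growth.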

Another experiment concerns A. flavus MMX 5948. Put plainly: MIC/MEC assay (CLSI microdilution). It is filed as cell-based. Conditions: Aspergillus flavus, MMX5948, 48 h; for minimal effective concentration: RPMI plus 0.002% Tween-80; for MIC: RPMI plus 0.002% Tween-80, read-out: MIC. The essentials:
(§1)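 Broth microdilution per CLSI in RPMI-1640 with 0.002% Tween-80; MMX 5280 also run without Tween-80. Test compounds serially diluted two-fold in 95% ethanol, amphotericin B in DMSO (0.06-64 μg/mL). Aspergillus spore inoculum gave approximately 0.2-2.5×10^4 CFU/mL final.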

The test system of another experiment is A. fumigatus MMX 5944. Put plainly: MIC/MEC assay (CLSI microdilution). It is filed as cell-based. Conditions: Aspergillus fumigatus, MMX5944, 48 h; for minimal effective concentration: RPMI plus 0.002% Tween-80; for MIC: RPMI plus 0.002% Tween-80, read-out: MIC. Summed up: as §1
In experiment [4] the test system is A. fumigatus MMX 6781 ATCC MYA-4609. Put plainly: MIC/MEC assay (CLSI microdilution). Conditions: RPMI plus 0.002% Tween-80; 48 hr. Type of experiment: cell-based. Summed up: as §1
Experiment [5] relates to A. fumigatus MMX 6782 ATCC 13073. Put plainly: MIC/MEC assay (CLSI microdilution). Type of experiment: cell-based. The essentials: as §1
Experiment [6] has as its system A. fumigatus from Aureogen. Nature of the experiment: MIC/MEC assay (CLSI microdilution). It is filed as cell-based. Conditions: Aspergillus fumigatus, 48 h; for minimal effective concentration: RPMI plus 0.002% Tween-80; for MIC: RPMI plus 0.002% Tween-80, read-out: MIC. Summed up:
as §1

The subject of experiment [7] is A. niger MMX 0624 ATCC 16888. Put plainly: MIC/MEC assay (CLSI microdilution). Type of experiment: cell-based. The settings on record: Aspergillus niger, ATCC16888, 48 h; for minimal effective concentration: RPMI plus 0.002% Tween-80, read-out: MEC; for MIC: RPMI plus 0.002% Tween-80, read-out: MIC. The essentials:
as §1

In experiment [8] the test system is A. fumigatus MMX 5280 ATCC MYA-3626. Put plainly: MIC/MEC assay (CLSI microdilution). It is filed as cell-based, Aspergillus fumigatus. The essentials:
as §1

Experiment [9] has as its system C. albicans MMX 2000 ATCC 10231. Put plainly: MIC assay (CLSI microdilution). Type of experiment: cell-based. Conditions: Candida albicans, ATCC10231, Without Tween-80; read-out: MIC.
Setting [10] is: ATCC22019, RPMI plus 0.002% Tween-80.
[11] abbreviates: Aspergillus fumigatus, 48 h, Without Tween-80, read-out: MIC.
The mark [12] stands for this setting: RPMI plus 0.002% Tween-80, 48 hr.

Structures are written as SMILES. In brackets after ≈: the same amount, converted by molar mass. Several values for one entry are separate records, joined by “and”; a condition that tells them apart may be missing. Equal entries are not always repeated. Where two headings read alike, the source gives them in different places. Numbered stars: 1 amine (or outer) side, 2 acyl side, 3 side chain; on linkers, the order of the positions; unused ones are H or OH. Square brackets hold non-standard residues; d marks the D form. Peptide text beside a SMILES is read from it. X1 = CC(C)N1CCN(c2ccc(-c3cccc(C[C@@H](C(=O)[*:2])N(C)[*:1])c3)cc2)CC1; X7 = CC(C)N1CCN(c2ccc(-c3cccc(C[C@H](N[*:1])C(=O)[*:2])c3)cc2)CC1; X10 = CN([C@@H](Cc1cccc(-c2ccc(N3CCNCC3)nc2)c1)C(=O)[*:2])[*:1]; Hmp(2R,3S) = CC[C@H](C)[C@@H](O)C(=O)O; NMeVal(β-OH) = CN[C@H](C(=O)O)C(C)(C)O; NMeV = CN[C@H](C(=O)O)C(C)C

A word on the MIC: it is the lowest concentration that inhibits growth of the organism. On to `CC[C@H](C)[C@@H]1NC(=O)[C@@H]2CCCN2C(=O)[C@H](Cc2cccc(-c3ccc(N4CCNCC4)nc3)c2)N(C)C(=O)[C@H](Cc2ccccc2)NC(=O)[C@H](C(C)C)N(C)C(=O)[C@@H]([C@@H](C)CC)OC(=O)[C@H](C(C)(C)O)N(C)C(=O)[C@H](CC(C)C)NC(=O)[C@H](C(C)C)N(C)C1=O` [Compound 30] (cyclo(F[X10]PI[NMeV]L[NMeVal(β-OH)][Hmp(2R,3S)][NMeV])), for which the MIC came to 0.015 µg/mL in [1]; 0.25 µg/mL in experiment [2]; 0.06 µg/mL in experiment [3] (setting [10]); 2 µg/mL (≈ 1.58 µM) in [3] (ATCC22019, Without Tween-80); 0.5 µg/mL with A. flavus MMX 5948; 1 µg/mL in the experiment on A. fumigatus MMX 5944. In addition, the MIC was 2 µg/mL in experiment [4]; 2 µg/mL in [5] (Aspergillus fumigatus, ATCC13073, 48 h, RPMI plus 0.002% Tween-80, read-out: MIC); 1 µg/mL in experiment [6]; 0.5 µg/mL in [7]; 2 µg/mL (≈ 1.58 µM) in experiment [8] (setting [11]); 2 µg/mL in experiment [8] (setting [12]). Also, the MIC in [9] came out at 0.5 µg/mL (≈ 0.396 µM). For the same compound, the minimal effective concentration with A. flavus MMX 5948 is 0.12 µg/mL; in the experiment on A. fumigatus MMX 5944 it was 0.5 µg/mL; in experiment [5] (Aspergillus fumigatus, ATCC13073, 48 h, RPMI plus 0.002% Tween-80, read-out: MEC), 0.5 µg/mL; in experiment [6], 0.5 µg/mL; in experiment [7], 0.5 µg/mL. The MEC in experiment [4] turned out to be 1 µg/mL; in [8] (setting [12]), 1 µg/mL; in [8] (Without Tween-80, 48 hr), 1 µg/mL.
In the case of `CC[C@H](C)[C@@H]1NC(=O)[C@@H]2CCCN2C(=O)[C@H](Cc2cccc(-c3ccc(N4CCN(C(C)C)CC4)cc3)c2)N(C)C(=O)[C@H](Cc2cccc(-c3ccc(N4CCN(C(C)C)CC4)cc3)c2)NC(=O)[C@H](C(C)C)N(C)C(=O)[C@@H]([C@@H](C)CC)OC(=O)[C@H](C(C)(C)O)N(C)C(=O)[C@H](CC(C)C)NC(=O)[C@H](C(C)C)N(C)C1=O` [Compound 31] (cyclo(I[NMeV]L[NMeVal(β-OH)][Hmp(2R,3S)][NMeV][X7][X1]P)), the MIC in experiment [1] is 0.06 µg/mL; in experiment [2], 1 µg/mL; in [3] (setting [10]), 0.5 µg/mL; in experiment [3] (ATCC22019, Without Tween-80) it was 2 µg/mL (≈ 1.33 µM); in the experiment on A. flavus MMX 5948, 0.5 µg/mL; in the experiment with A. fumigatus MMX 5944 it was 1 µg/mL. For the same compound, the MIC in experiment [4] is 2 µg/mL; in experiment [5] (setting [12]), 2 µg/mL; in [6], 0.5 µg/mL; in [7] it was 1 µg/mL; in [8] (Aspergillus fumigatus, 48 h, RPMI plus 0.002% Tween-80, read-out: MIC), 2 µg/mL; in experiment [8] (setting [11]), 1 µg/mL (≈ 0.664 µM). Moreover, the minimum inhibitory concentration (MIC) was determined as 2 µg/mL (≈ 1.33 µM) in [8] (Without Tween-80, 48 hr) and 1 µg/mL (≈ 0.664 µM) in [9]. Further, the minimal effective concentration is 0.12 µg/mL in the experiment with A. flavus MMX 5948; 0.5 µg/mL in the experiment on A. fumigatus MMX 5944; 0.25 µg/mL in experiment [6]; 0.5 µg/mL in experiment [7]; 0.5 µg/mL in experiment [8] (Aspergillus fumigatus, 48 h, RPMI plus 0.002% Tween-80, read-out: MEC). The MEC is 1 µg/mL in experiment [4]; 1 µg/mL in [5] (setting [12]); 1/1 μg/mL and 1 μg/mL in experiment [8] (Without Tween-80, 48 hr).

The record behind these values is patent US11066447B2, “Aureobasidium derivatives and methods of synthesis” (AureoGen Biosciences, Inc., priority 2016, dated 2021).
